This note sets out measurements from US20070004680A1, “Compositions and methods for modulating gated ion channels” (PainCeptor Pharma Corporation, priority 2004, published 2007).

Molecules are shown by their SMILES.

The experiment deals with Male Sprague-Dawley rats. The experiment is described as follows: Formalin test (flinching behaviour). Type of experiment: in vivo, rat. The note with it: 10 mg/kg i.v. 10 min prior to formalin in the hind limb; compared with vehicle; n=8. As for the experimental part:
Male Sprague-Dawley rats (body weight, 180-300 g) are housed together in groups of four animals under standard conditions with unrestricted access to food and water. Rats are housed in the room in which the testing procedure is performed to minimize any stress response to novel environmental cues. All experiments are conducted according to the ethical guidelines for investigations of experimental pain in conscious animals (Zimmerman, 1983).
Separate groups of rats are used for the different experiments such that each animal is used on one occasion only. All experiments for a given compound are performed using age matched animals in an attempt to avoid variability between experiments. Prior to initiation of the formalin test, 4 rats are habituated in separate testing cages for 15-20 min. […] On the basis of the response pattern, two distinct phases of nociceptive behavior are observed, characterized by flinching of the affected paw and scored (Blackburn-Munro et al., Eur J Pharmacol. 2002 Jun. 12;445(3):231-8). […]
All data is analysed using Sigmastat 2.03 statistical software (Jandel Scientific GmbH, Germany) and expressed as mean±S.E.M. Two Way Repeated Measures Analysis of Variance (Two Way RM ANOVA) is used to analyse formalin test data and where applicable, this is followed by post-hoc analysis using Bonferroni's t-test to allow comparisons between groups. […]

Consider `C=CC1CN2CCC1CC2[C@@H](OC(=O)CCC1CCCC1)c1ccnc2ccccc12` (stereo partly shown) [Compound A], for which the “flinching behaviour in Formalin test” value was “attenuated flinching behaviour”.
